{"source": "patent US7157487B2", "about": "“Vla-4 inhibitors” (Daiichi Pharmaceutical Co., Ltd., priority 2000, dated 2007)", "key": {"[1]": {"biological_target": "T1, integrins haα4 and β1 (VLA-4) expressed on CHO cells (Homo sapiens, UniProt P05556+P13612)", "T1 construct": "expressed in transfected cells; host or cells: CHO cells", "T1 sequence (P13612 34-1032)": "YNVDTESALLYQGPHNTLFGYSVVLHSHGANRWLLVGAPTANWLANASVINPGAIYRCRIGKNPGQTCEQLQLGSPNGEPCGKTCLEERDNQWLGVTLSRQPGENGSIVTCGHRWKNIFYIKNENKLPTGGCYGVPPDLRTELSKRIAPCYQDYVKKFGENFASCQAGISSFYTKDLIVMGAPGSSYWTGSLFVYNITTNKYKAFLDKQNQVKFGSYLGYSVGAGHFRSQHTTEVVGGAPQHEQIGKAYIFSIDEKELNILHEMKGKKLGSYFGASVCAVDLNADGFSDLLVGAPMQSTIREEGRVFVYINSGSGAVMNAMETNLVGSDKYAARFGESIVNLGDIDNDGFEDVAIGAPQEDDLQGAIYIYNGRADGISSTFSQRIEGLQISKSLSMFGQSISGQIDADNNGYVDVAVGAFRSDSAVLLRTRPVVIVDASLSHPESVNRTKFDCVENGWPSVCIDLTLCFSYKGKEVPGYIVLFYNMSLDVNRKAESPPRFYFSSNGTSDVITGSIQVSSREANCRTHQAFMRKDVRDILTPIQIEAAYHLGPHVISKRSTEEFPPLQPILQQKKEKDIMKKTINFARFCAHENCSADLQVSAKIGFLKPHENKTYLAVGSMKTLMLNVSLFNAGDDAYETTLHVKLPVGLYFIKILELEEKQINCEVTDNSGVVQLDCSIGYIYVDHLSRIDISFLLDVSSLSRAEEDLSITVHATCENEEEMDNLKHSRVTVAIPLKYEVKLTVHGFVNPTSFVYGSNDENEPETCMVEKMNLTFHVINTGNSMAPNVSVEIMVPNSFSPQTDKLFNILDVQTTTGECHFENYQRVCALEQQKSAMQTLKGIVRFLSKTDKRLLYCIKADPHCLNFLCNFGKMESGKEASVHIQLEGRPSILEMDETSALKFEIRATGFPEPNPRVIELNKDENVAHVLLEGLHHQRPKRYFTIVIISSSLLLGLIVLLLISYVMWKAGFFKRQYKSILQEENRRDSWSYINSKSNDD", "T1 sequence (P05556 21-798)": "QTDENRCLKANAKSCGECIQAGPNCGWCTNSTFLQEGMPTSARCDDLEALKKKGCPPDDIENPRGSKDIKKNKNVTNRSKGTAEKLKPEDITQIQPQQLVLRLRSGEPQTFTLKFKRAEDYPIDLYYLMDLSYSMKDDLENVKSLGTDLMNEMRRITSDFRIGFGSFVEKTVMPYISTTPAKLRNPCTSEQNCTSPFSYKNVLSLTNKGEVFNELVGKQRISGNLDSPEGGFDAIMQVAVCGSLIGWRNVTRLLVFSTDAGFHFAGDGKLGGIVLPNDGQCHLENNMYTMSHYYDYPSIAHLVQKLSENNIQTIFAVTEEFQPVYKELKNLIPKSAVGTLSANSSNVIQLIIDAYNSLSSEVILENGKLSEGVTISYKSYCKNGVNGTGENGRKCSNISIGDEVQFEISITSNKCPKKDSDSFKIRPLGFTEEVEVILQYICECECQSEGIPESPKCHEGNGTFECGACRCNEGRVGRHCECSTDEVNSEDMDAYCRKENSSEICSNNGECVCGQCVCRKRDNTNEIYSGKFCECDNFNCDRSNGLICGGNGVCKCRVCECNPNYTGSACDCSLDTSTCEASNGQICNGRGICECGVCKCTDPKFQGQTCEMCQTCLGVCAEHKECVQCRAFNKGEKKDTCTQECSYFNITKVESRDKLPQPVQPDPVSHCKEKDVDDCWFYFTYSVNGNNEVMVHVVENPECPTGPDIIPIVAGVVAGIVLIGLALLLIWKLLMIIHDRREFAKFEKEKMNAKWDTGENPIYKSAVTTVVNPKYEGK", "assay": "In vitro Evaluation Test (1): binding of Eu3+-hVCAM-1 D1D7-IgG to CHO cells expressing integrins α4 and β1", "conditions": "inhibition of Eu3+-hVCAM-1 D1D7-IgG binding to CHO cells expressing α4β1; Ki calculated from IC50", "in_short": "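CHO cells transduced with human α4 and β1 were grown for 2 days. They were incubated 1 h at room temperature with Eu3+-hVCAM-1 D1D7-IgG (diluted to 2 nM before addition) and compound, with or without 6% HSA, in HEPES pH 7.5 containing Ca2+, Mg2+ and 4 mM Mn2+. Time-resolved fluorescence gave IC50; Ki used a Scatchard-derived Kd (0.06–20 nM).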"}, "[2]": {"assay": "Pharmacokinetics and oral bioavailability in dogs", "assay_type": "in vivo", "conditions": "2 /kg, Dog, oral, Dose/kg 2.0, plasma", "excerpt": "(§1) The pharmacokinetic parameter of the test compound orally administered to rats or dogs are described below."}, "[3]": {"assay": "Pharmacokinetics and oral bioavailability in rats", "assay_type": "in vivo", "conditions": "5 /kg, Rat, oral, Dose/kg 5.0, plasma", "excerpt": "as §1"}, "VLA-4 expressed cells": {"system": "VLA-4 expressed cells", "conditions": "literature report; cited from earlier work"}, "[4]": {"system": "cardiac transplantation of rabbits", "conditions": "literature report; cited from earlier work"}, "VLA-4": {"biological_target": "VLA-4 (Homo sapiens, UniProt P05556+P13612)", "sequence (P13612 34-1032)": "as the sequence (P13612 34-1032) above", "sequence (P05556 21-798)": "as the sequence (P05556 21-798) above", "conditions": "in vitro, literature report; cited from earlier work"}, "[5]": {"conditions": "read-out: F (%) oral bioavailability"}, "[6]": {"conditions": "read-out: CLtot (mL/min/kg) apparent plasma clearance"}}}
{"compound": "Cc1ccccc1Nc1nc2ccc(CC(=O)N3C[C@@H](F)C[C@H]3COC3CCC(C(=O)O)CC3)cc2o1", "note": "(single isomer, unassigned) [21 (Isomer H)]", "values": [{"measurement": "Ki", "setting": "[1]", "result": 2.5, "unit": "nM"}, {"measurement": "AUC", "setting": "[2]; LC/MS/MS", "result": 760, "unit": "ng·h/mL"}, {"measurement": "bioavailability", "setting": "[2]; [5]", "result": 40, "unit": "%"}, {"measurement": "clearance", "setting": "[2]; [6]", "result": 17.9, "unit": "mL/min/kg"}, {"measurement": "AUC", "setting": "[3]; LC/MS/MS", "result": 14900, "unit": "ng·h/mL"}, {"measurement": "bioavailability", "setting": "[3]; [5]", "result": 52, "unit": "%"}, {"measurement": "clearance", "setting": "[3]; [6]", "result": 3.3, "unit": "mL/min/kg"}]}
{"compound": "CQIDSPC", "values": [{"measurement": "inhibition of adhesion of VLA-4 expressed cells to purified VCAM-1", "setting": "VLA-4 expressed cells", "result": "succeeded in inhibiting adhesion"}]}
{"compound": "phenylacetic acid-Leu-Asp-Phe-d-Pro-amide [synthetic CS-1 tetrapeptide]", "values": [{"measurement": "advance of coronary arterial diseases", "setting": "[4]", "result": "amelioration of advance of coronary arterial diseases"}, {"measurement": "inhibition of leukocyte adhesion mediated by VLA-4", "setting": "VLA-4", "result": "in vitro inhibition"}]}
